# Laboratory results taken from patent publication US12691087B2, “Method of enhancing glucose levels in the central nervous system” (THE INSTITUTE FOR ETHNOMEDICINE, priority 2018, dated 2026).
# What was measured:
# [1] = Randomized, placebo-controlled double-blinded study of cognitive ability in healthy post-menopausal women (Rey Auditory Verbal Learning Test); assay type: in vivo, human; settings: 15 g/day for 60 days
# Source text: This Example describes a nutritional experiment conducted on post-menopausal women. The study was designed to determine if dietary supplementation with L-[…] grams/day) improves cognitive ability in healthy women when administered over a 60-day period. Forty-eight women ages 55 years, who had not been diagnosed with mild cognitive impairment, probable dementia, or Alzheimer's disease participated as volunteers in this randomized, placebo-controlled double-blinded study. Forty-three women completed the study. Cognitive abilities of each participant were assessed in several different cognitive domains by using the NIH toolbox (Gershon et al, 2013) on an I-Pad, founded on earlier test procedures developed by Atkinson and […] (1968). Cognitive tests included the Rey Auditory Verbal Learning Test which broadly assesses short-term auditory and verbal learning (King et al. 1998). For example, in one test participants were presented 15 unrelated words and asked to repeat them again after 30 minutes. The cognitive assessment was administered to participants at the beginning and the end of the sixty-day study period. The assessment procedure lasted 45 minutes for each individual. L-serine gummies, each at 2.2 grams total weight, and each containing 1.0 grams of L-serine were manufactured in a cGMP FDA-compliant facility by […]). Placebo gummies were manufactured in a similar manner. […] The gummies were placed in sealed foil packets, each packet containing 15 gummies. Microbiological analysis indicated the gummies to be free of bacterial contamination. The materials used for packaging were manufactured by ESP Packaging LLC (Costa Mesa, CA). Each individual foil packet was labeled with a lot number containing the Julian code date. […] The differences between the beginning and end score for each participant in the L-serine treatment and placebo treatment groups were evaluated using a Wilcoxon-Mann-Whitney test with p<0.05 as the significance level. […]
# [2] = Glucose in cerebral spinal fluid of vervets fed L-serine; assay type: in vivo, vervets (Chlorocebus pygerythrus)
# Method: […]. These were compared to four control vervets who were fed daily control doses of 651 mg/day of rice powder for 42 days.
# Cerebral spinal fluid samples were taken during the experiment. The cerebral spinal fluid samples from vervets fed L-serine were compared to cerebral spinal fluid samples from control vervets at 42 days.
# Frozen cerebral spinal fluid (CSF) was prepared using equal volumes of CSF and 20% w/v TCA. The combined volume was sonicated (Fisher Scientific Sonic Dismembrator, Model 100) on ice at 2 watts (10 s×3) and left to precipitate at room temperature for 30 minutes. The sample was then centrifuged (Labnet Spectrafuge 16M) at 14,000 g for 5 min. […]
# CSF extracts were analyzed on a TSQ Quantiva (Thermo Scientific) triple quadrupole mass spectrometer with an Ultra High Pressure Liquid Chromatography (Waters Acquity-UHPLC) system equipped with a Binary Solvent Manager, Sample Manager, and an Acquity UPLC BEH Amide column (#186004801, 100×2.1 mm, 1.7 μm) at 50° C. […]
# The mass spectrometer was operated with a heated electrospray ionization (H-ESI) probe and sheath gas pressure set to 40 (Arb), aux gas set to 2 (Arb), and sweep gas set to 1 (Arb). Samples were analyzed in negative ion mode with a vaporizer temperature of 350° C., capillary temperature of 130° C., and spray voltage 2800v. […]
# [3] = up to 30 g/day over a six-month period; 20 ALS patients; cited from earlier work
# [4] = tested on: human neuroblastoma cells (SH-SY5Y); assay: Glucose synthesis by SH-SY5Y cells given L-serine (Amplex Red Glucose Assay, culture medium); assay type: cell-based; settings: 100, 200 and 500 mM L-serine; 0, 24 and 48 hrs; medium deficient in glucose
# Method: Cell Culture: SH-SY5Y human neuroblastoma (PD19, […]) were cultured in 150 cm^2 flasks in Dulbecco's Modified Eagle's Medium/Nutrient F-12 Ham (Sigma-Aldrich, Cat. No. D8437) containing 10% fetal bovine serum (FBS), 4 mM L-glutamine, 100 U/mL penicillin, and 100 μg/mL streptomycin at 37° C. (Complete Medium) in a humidified atmosphere of 5% CO2 and 95% air. At between 70 and 90% confluence, the cells were trypsinized with 0.5% Trypsin-EDTA (Thermo Fisher, Cat. No. 15400054) and then 2.5×10^5 cells/well plated in twenty-four-well plates and allowed to adhere overnight (PD22). The following day, the cell culture medium was aspirated, and the cells were washed three times in warm […] Hanks buffered salt solution (HBSS). […] Glucose concentrations were measured using the Amplex® Red Glucose/Glucose Oxidase Assay Kit (Invitrogen). […] Fluorescence was read at excitation 540 nm and emission […] in SoftMax Pro version 7.0.2 on a Molecular Devices Flexstation 3. Glucose concentrations in the samples were calculated from the standard curve. […] Human neuroblastoma cells were incubated in medium deficient in glucose and L-serine, but supplemented with increasing concentrations of L-[…], 200 and 500 mM) for 0, 24 and 48 hrs, then glucose concentrations in the culture medium measured using the Amplex® Red Glucose Assay (Invitrogen).
# [5] = Storage stability of L-serine; assay type: physicochemical; settings: 24 month storage, room temperature (<30° C.), relative humidity <75%
# [6] = Case study of a person with GLUT1 deficiency; assay type: in vivo, human; settings: 30 grams per day oral, single patient
# Source text: Evidence for the efficacy of L-serine therapy for glucose deficiency syndrome is supported by a case-study of a person (“the patient”) who suffered ataxia, developmental impairment, reduced social interaction, and fine motor skill deficits as a result of their GLUT1 deficiency. In subjects suffering from glucose deficiency syndrome, there is insufficient glucose transported across the brain to allow proper functioning of brain cells. Since L-serine is transported through a different mechanism across the blood brain barrier, it is possible to increase intracranial glucose concentrations through administration of high doses of L-serine. The patient was administered 30 grams of L-serine per day by oral administration.
structure (smiles),measurement,setting,value
N[C@@H](CO)C(=O)O [L-serine],delayed list recall,[1]; did not achieve statistical significance,trend towards improvement
same,mean improvement on the Rey Auditory Verbal Learning Test,"[1]; final minus beginning score, placebo 4.0",7.9
same,improvement in learning ability (Rey Auditory Verbal Learning Test) compared to the placebo group,[1]; p<0.01,98%
same,increase of glucose levels versus control vervets,"[2]; 651 mg/day oral for 42 days, significant at p<0.005",great than doubling
same,median level of glucose in CSF,"[2]; vervets fed 651 mg/day L-serine for 42 days, CSF at 42 days, control 24 mg/100 ml, p<0.005",58 mg/100 ml
same,safety,[3],safe
same,glucose concentration in the culture medium compared to Control (0 mM L-serine),[4],No significant increase
same,changes in optical rotation or purity on storage,[5],No significant changes
same,stability on storage,[5],extraordinarily stable
same,"fine motor skills, including handwriting",[6],improved fine motor skills
same,social interaction,[6],improved social interaction
same,patient's condition (ability to ride a bicycle and carry cargo),[6]; within several weeks,rapid improvement
